In brackets after ≈: the same amount, converted by molar mass. Where two headings read alike, the source gives them in different places.
Tests used:
S. obliqnus = assay: Algicidal activity (growth inhibition, microplate, absorbance 650 nm) against S. obliqnus; assay type: cell-based; conditions: for IC50: 96 h, read-out: IC50 value S. obliqnus; for algicidal activity, times higher than CuSO4 and Diuron: S. obliqnus, from IC50 values
Experimental: (§1) According to the method established by Schrader et al.[42], algicidal activity of alkaloid (1) and its amide analogues (7–32), as well as their hydrochloric salts (7S–27S), was evaluated against three typical […] algae, S. obliqnus, M. aeruginosa, and C. Pyrenoidosa at different concentrations. After three algae species were inoculated, the variation of algae density over 7 days were recorded continuously. […] The wavelength at 650 nm was determined as ideal incident wavelength for the measurement of algae density. Three […] algae S. obliqnus, M. aeruginosa, and C. pyrenoidosa were offered by Freshwater algae culture collection of the institute of Hydrobiology (FACHB-collection). Each culture for three species was maintained separately in continuous, steady-state growth microplates, which were placed in a growth chamber held at 28 ± 1 °C and illuminated continuously under fluorescent lights at a photon flux density of […]. Absorbance values of each wells were measured by a Packard model Spectra Count microplate photometer.
(§2) Alkaloid (1) and its analogues (7–32), as well as their hydrochloric salts (7S–27S), were dissolved separately in DMSO to provide stock solution concentrations. Initially, each stock solution was aseptically pipetted into the bottom of separate wells (20 μL per well) in a 96-well microplate and the final test concentrations for each sample were 0, 0.78, 1.56, 3.12, 6.25, 12.5, and 25 μg/mL. Wells of control samples contained only unialgal culture. The solution of CuSO4 and Diuron at the same concentration were chose as the reference sample. Each experiment was performed at least three times. Through measuring the area values under the individual growth curves, the inhibitory rate (%) for the individual tested concentration was calculated according to the following equation (1):1 Ii=(Ac−Ai)/[…]×100% • Ii: inhibitory rate of biomass growth by toxicant concentration i (%) • Ac: average area under the growth curve by control sample • Ai: average area under the growth curve by test concentration i
(§3) Mean values of 96-hour IC50 were determined for each group of plates, and standard deviation were calculated and reported as the mean ± SD.
(§4) The IC50 values of all compounds against three freshwater algae species were calculated using SPSS v19.0, and the algicidal activities of alkaloid (1) and its amide analogues (7–32), as well as the corresponding hydrochloric salts (7S–27S) are listed in Table 1 and 2, respectively.

M. aeruginosa = assay: Algicidal activity (growth inhibition, microplate, absorbance 650 nm) against M. aeruginosa; assay type: cell-based; conditions: for IC50: Microcystis aeruginosa, read-out: IC50 value M. aeruginosa; for growth inhibitory ratio: 3.13 μg/mL
Experimental: as §1, §2, §3, §4
Currently, M. aeruginosa appears to be the most harmful algae existing in the freshwater bodies in the developing countries. To investigate growth inhibitory potential of this class of thiazole amides on M. aeruginosa, thiazole amide (10) and its hydrochloric acid salt (10S) were subject to further survey for the optimal inhibition time and concentration (Figs 3 and 4). […] The variation of growth inhibitory ratios of compounds (10) and (10S) against M. aeruginosa at the lowest complete inhibition concentration is illustrated in Fig. 4. As observed, for administration of thiazole amide (10), the growth inhibitory ratios after 96 and 120 hours increase gradually to 79% and 92%, respectively. Under the same experimental conditions, growth inhibitory ratios for the salt (10S) are 82% and 88%, respectively.

C. pyrenoidosa = assay: Algicidal activity (growth inhibition, microplate, absorbance 650 nm) against C. pyrenoidosa; assay type: cell-based, Chlorella pyrenoidosa; conditions: for IC50: Auxenochlorella pyrenoidosa, read-out: IC50 value C. pyrenoidosa
Experimental: as §1, §2, §3, §4

[1] = tested on: dinoflagellates and raphidophytes; parameters: method as in doi:10.1016/j.tetlet.2003.08.115, PMID 17988095; conditions: cited from earlier work
Barchydanio rerio var = assay: Toxicity toward fish; assay type: in vivo; conditions: for Survival ratio in 7 days: fish
Experimental: (§5) Toxicity of this class of thiazole amides towards non-target organisms, such as higher plants and fishes, was evaluated preliminarily using compound (10) as a representative sample. Herbicidal activity of compound (10) against two terrestrial plants, Brassica campestris and Echinochloa crusgalli, and two aquatic plants, Ceratophyllum demersum L and Hydrilla verticillata, was evaluated at a concentration of 500 mg/L using a previously reported method. In addition, toxicity of compound (10) toward fish Barchydanio rerio var was also tested at the concentrations of 200 mg/L and 100 mg/L, respectively.

Brassica campestris = assay: Herbicidal activity against terrestrial plant B. campestris; assay type: in vivo; conditions: n.a.: no activity
Experimental: as §5

Echinochloa crusgalli = assay: Herbicidal activity against terrestrial plant E. crusgalli; assay type: in vivo; conditions: n.a.: no activity
Experimental: as §5

Ceratophyllum demersum L = assay: Herbicidal activity against aquatic plant C. demersum L; assay type: in vivo; conditions: n.a.: no activity
Experimental: as §5

Hydrilla verticillata = assay: Herbicidal activity against aquatic plant H. verticillata; assay type: in vivo; conditions: n.a.: no activity
Experimental: as §5

[2] = parameters: method as in PMID 16468755, PMID 16378379; conditions: Synechococcus obliqnus; cited from earlier work
Kirchneriella contorta = tested on: Kirchneriella contorta; parameters: method as in PMID 16468755, PMID 16378379; conditions: cited from earlier work
Microcystis aeruginosa = tested on: Microcystis aeruginosa; parameters: method as in PMID 16468755, PMID 16378379; conditions: cited from earlier work

Compound | IC50 (M. aeruginosa; 96-hour IC50, mean ± SD) [µg/mL] | IC50 (C. pyrenoidosa; 96-hour IC50, mean ± SD) [µg/mL] | IC50 (S. obliqnus; 96-hour IC50, mean ± SD) [µg/mL] | further results
CCOC(=O)c1ccc(NC(=O)c2csc([C@H](C)N)n2)cc1.Cl [26S] |  |  |  | IC50 value S. obliqnus (S. obliqnus; 96-hour IC50, mean ± SD): 10.60 ± 1.18 µg/mL; IC50 value M. aeruginosa (M. aeruginosa; 96-hour IC50, mean ± SD): 2.46 ± 0.23 µg/mL; IC50 value C. pyrenoidosa (C. pyrenoidosa; 96-hour IC50, mean ± SD): 2.38 ± 0.32 µg/mL
O=S(=O)([O-])[O-].[Cu+2] [CuSO4, reference compound] |  |  |  | IC50 value S. obliqnus (S. obliqnus; 96-hour IC50, mean ± SD): 0.99 ± 0.06 µg/mL; IC50 value M. aeruginosa (M. aeruginosa; 96-hour IC50, mean ± SD): 1.29 ± 0.02 µg/mL; IC50 value C. pyrenoidosa (C. pyrenoidosa; 96-hour IC50, mean ± SD): 1.56 ± 0.09 µg/mL
CN(C)C(=O)Nc1ccc(Cl)c(Cl)c1 [Diuron, reference compound] |  |  |  | IC50 (S. obliqnus): 0.79 ± 0.08 µg/mL (≈ 3.39 µM); IC50 (M. aeruginosa; 96 h): 1.35 ± 0.15 µg/mL (≈ 5.79 µM); IC50 (C. pyrenoidosa; 96 h): 1.42 ± 0.27 µg/mL (≈ 6.09 µM)
CC(=O)c1nc(C(=O)NCCc2c[nH]c3ccccc23)cs1 [bacillamide A] |  |  |  | antibiotic activity (in words) [1]: potent antibiotic activity
C[C@H](N)c1nc(C(=O)Nc2ccccc2)cs1 [compound 7] | 11.2 ± 1.12 (≈ 45.1 µM) | 4.61 ± 0.45 (≈ 18.6 µM) |  | melting point: 117 to 122 °C
C[C@H](N)c1nc(C(=O)Nc2ccc(F)cc2)cs1 [compound 8] | 4.51 ± 0.92 (≈ 17 µM) | 3.57 ± 0.37 (≈ 13.5 µM) | 2.74 ± 0.11 (≈ 10.3 µM) | 
C[C@H](N)c1nc(C(=O)Nc2ccc(Cl)cc2)cs1 [compound 9] | 2.19 ± 0.09 (≈ 7.77 µM) | 1.37 ± 0.12 (≈ 4.86 µM) | 4.12 ± 0.13 (≈ 14.6 µM) | 
C[C@H](N)c1nc(C(=O)Nc2ccc(Br)cc2)cs1 [compound 10] | 1.51 ± 0.11 (≈ 4.63 µM) | 1.52 ± 0.05 (≈ 4.66 µM) |  | algicidal activity, times higher than CuSO4 and Diuron (S. obliqnus): more than 10 times; toxicity toward fish (in words) (Barchydanio rerio var; 100 and 200 mg/L): safe; Survival ratio in 7 days (Barchydanio rerio var; dosage 100 mg/L): 100%; Survival ratio in 7 days (Barchydanio rerio var; dosage 200 mg/L): 100%; growth inhibitory ratio (M. aeruginosa; after 96 hours): 79%; growth inhibitory ratio (M. aeruginosa; after 120 hours): 92%; Herbicidal activity (500 mg/L) B. campestris (Brassica campestris): none-toxic; Herbicidal activity (500 mg/L) E. crusalli (Echinochloa crusgalli): none-toxic; Herbicidal activity (500 mg/L) C. demersum L. (Ceratophyllum demersum L): none-toxic; Herbicidal activity (500 mg/L) H. verticillata (Hydrilla verticillata): none-toxic
Cc1ccc(NC(=O)c2csc([C@H](C)N)n2)cc1 [compound 11] | 6.16 ± 1.13 (≈ 23.6 µM) | 10.4 ± 1.12 (≈ 39.8 µM) | 2.66 ± 0.18 (≈ 10.2 µM) | 
COc1ccc(NC(=O)c2csc([C@H](C)N)n2)cc1 [compound 12] | 2.35 ± 0.91 (≈ 8.47 µM) | 17.4 ± 0.92 (≈ 62.6 µM) |  | algicidal activity, times higher than CuSO4 and Diuron (S. obliqnus): more than 10 times; melting point: 126 to 127 °C
C[C@H](N)c1nc(C(=O)Nc2ccc(C(F)(F)F)cc2)cs1 [compound 13] | 2.36 ± 0.12 (≈ 7.48 µM) | 4.58 ± 0.23 (≈ 14.5 µM) | 4.35 ± 0.17 (≈ 13.8 µM) | 
C[C@H](N)c1nc(C(=O)Nc2cccc(Cl)c2)cs1 [compound 14] | 5.19 ± 0.19 (≈ 18.4 µM) | 4.37 ± 0.14 (≈ 15.5 µM) | 1.52 ± 0.12 (≈ 5.39 µM) | melting point: 155 to 159 °C
Cc1cccc(NC(=O)c2csc([C@H](C)N)n2)c1 [compound 16] | 24.2 ± 3.12 (≈ 92.4 µM) | 7.18 ± 0.05 (≈ 27.5 µM) | 2.86 ± 0.14 (≈ 10.9 µM) | melting point: 135 to 137 °C
C[C@H](N)c1nc(C(=O)Nc2cccc(C(F)(F)F)c2)cs1 [compound 17] | 12.2 ± 2.13 (≈ 38.7 µM) | 10.4 ± 0.99 (≈ 33.1 µM) | 9.21 ± 1.12 (≈ 29.2 µM) | 
C[C@H](N)c1nc(C(=O)Nc2ccccc2F)cs1 [compound 18] | 2.55 ± 0.19 (≈ 9.61 µM) | 3.41 ± 0.14 (≈ 12.9 µM) | 3.95 ± 0.92 (≈ 14.9 µM) | 
C[C@H](N)c1nc(C(=O)Nc2ccccc2Br)cs1 [compound 20] | 8.79 ± 1.23 (≈ 26.9 µM) | 2.84 ± 0.93 (≈ 8.71 µM) | 3.31 ± 0.13 (≈ 10.1 µM) | 
COc1ccccc1NC(=O)c1csc([C@H](C)N)n1 [compound 22] | 3.12 ± 0.56 (≈ 11.2 µM) | 2.19 ± 0.71 (≈ 7.9 µM) | < 1 | melting point: 82 to 84 °C
C[C@H](N)c1nc(C(=O)Nc2ccc(OC(F)(F)F)cc2)cs1 [compound 23] | 7.2 ± 0.71 (≈ 21.7 µM) | 3.8 ± 0.16 (≈ 11.5 µM) | 5.93 ± 0.11 (≈ 17.9 µM) | 
C[C@H](N)c1nc(C(=O)Nc2ccc(Cl)c(Cl)c2)cs1 [compound 24] | 9.81 ± 1.13 (≈ 31 µM) | 5.11 ± 1.01 (≈ 16.2 µM) | 4.31 ± 0.21 (≈ 13.6 µM) | 
Cc1cc(NC(=O)c2csc([C@H](C)N)n2)ccc1F [compound 25] | 6.73 ± 1.21 (≈ 24.1 µM) | 5.1 ± 0.13 (≈ 18.3 µM) | 1.81 ± 0.07 (≈ 6.48 µM) | 
CCOC(=O)c1ccc(NC(=O)c2csc([C@H](C)N)n2)cc1 [compound 26] | 3.29 ± 0.21 (≈ 10.3 µM) | 4.16 ± 0.56 (≈ 13 µM) | 29.5 ± 1.56 (≈ 92.5 µM) | 
CC(=O)c1ccc(NC(=O)c2csc([C@H](C)N)n2)cc1 [compound 27] | 2.33 ± 0.32 (≈ 8.05 µM) | 2.84 ± 0.23 (≈ 9.81 µM) | 4.73 ± 0.54 (≈ 16.3 µM) | melting point: 139 to 141 °C
CC(N)c1nc(C(=O)Nc2ccccn2)cs1 (centres unmarked) [compound 28] |  |  |  | IC50 value S. obliqnus (S. obliqnus; 96-hour IC50, mean ± SD): 3.97 ± 0.17 µg/mL (≈ 16 µM); IC50 value M. aeruginosa (M. aeruginosa; 96-hour IC50, mean ± SD): 3.09 ± 0.15 µg/mL (≈ 12.4 µM); IC50 value C. pyrenoidosa (C. pyrenoidosa; 96-hour IC50, mean ± SD): 14.76 ± 1.26 µg/mL (≈ 59.4 µM)
C[C@H](N)c1nc(C(=O)NC(C)(C)C)cs1 [compound 29] | 5.31 ± 0.45 (≈ 23.4 µM) | 3.46 ± 0.67 (≈ 15.2 µM) | 6.23 ± 0.98 (≈ 27.4 µM) | 
CCCCNC(=O)c1csc([C@H](C)N)n1 [compound 30] | 5.47 ± 0.41 (≈ 24.1 µM) | 4.65 ± 0.25 (≈ 20.5 µM) | 5.23 ± 0.36 (≈ 23 µM) | melting point: 109 to 111 °C
C[C@H](N)c1nc(C(=O)NCCc2ccccc2)cs1 [compound 31] | 57.5 ± 6.26 (≈ 209 µM) | 2.84 ± 0.56 (≈ 10.3 µM) | 5.98 ± 0.49 (≈ 21.7 µM) | 
C[C@H](N)c1nc(C(=O)NCc2ccccc2)cs1 [compound 32] | 9.48 ± 1.08 (≈ 36.3 µM) | 4.16 ± 0.88 (≈ 15.9 µM) | 100.2 ± 0.34 (≈ 383 µM) | melting point: 64 to 67 °C
C[n+]1ccc2c(c1)[nH]c1ccc(Cl)cc12 [nostocarboline] |  |  |  | IC50 [2]: 5.8 µM; IC50 (Kirchneriella contorta): 29.1 µM; IC50 (Microcystis aeruginosa): 2.1 µM
N-(2-(1H-indol-3-yl)ethyl)-2-acetylthiazole-4-carboxamide [Alkaloid (1)] |  |  |  | IC50 value S. obliqnus (S. obliqnus; 96-hour IC50, mean ± SD): 14.33 ± 1.15 µg/mL; IC50 value M. aeruginosa (M. aeruginosa; 96-hour IC50, mean ± SD): 114.60 ± 3.35 µg/mL; IC50 value C. pyrenoidosa (C. pyrenoidosa; 96-hour IC50, mean ± SD): 381.57 ± 5.16 µg/mL

Source: article PMC5986738, “Thiazole Amides, A Novel Class of Algaecides against Freshwater Harmful Algae” (Scientific Reports, 2018)
